≈ marks a conversion by molar mass, not a printed value. Calls of active or inactive are those of the source. No cut-off for these calls is given here.
What was measured:
Bacillus subtilis = experiment: Antimicrobial activity against Bacillus subtilis; format: functional
[1] = biological target: T1, Peptide deformylase (Escherichia coli) (UniProt Q9JN24); experiment: Inhibition of cobalt-substituted Escherichia coli PDF
T1 sequence (whole entry): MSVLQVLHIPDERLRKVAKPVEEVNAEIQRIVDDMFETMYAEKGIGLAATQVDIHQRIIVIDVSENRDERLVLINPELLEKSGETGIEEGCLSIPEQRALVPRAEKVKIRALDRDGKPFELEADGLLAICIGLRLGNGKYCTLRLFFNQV

[2] = biological target: T1, Peptide deformylase (Escherichia coli); experiment: Slow-binding inhibition of cobalt-substituted Escherichia coli PDF
Escherichia coli = experiment: Antimicrobial activity against Escherichia coli; format: functional

SMILES	MIC (Bacillus subtilis)	Ki [1]	Ki [2]	Activity (Escherichia coli)	MIC (Escherichia coli)
O=C(C[C@H]1CCCCCCCCCNC(=O)[C@@H]2CCCN2C1=O)NO	> 24 µg/mL	16000 nM	1400 nM	inactive	
CC(C)(C)[C@@H]1NC(=O)[C@@H](CC(=O)NO)CCCCCCCCCNC1=O	2 µg/mL (≈ 5.41 µM)	210 nM	4.4 nM		> 24 µg/mL
CC(C)(C)[C@@H]1NC(=O)[C@@H](CC(=O)NO)NC(=O)CCCCCCCCCNC1=O		> 20000 nM			
CC(C)(C)[C@@H]1NC(=O)[C@@H](CN(O)C=O)CCCCCCCCCNC1=O		109 nM	0.33 nM		

Source: ChEMBL document CHEMBL1142426, “Design and synthesis of macrocyclic peptidyl hydroxamates as peptide deformylase inhibitors” (2008)
